Assay [1] has as its target T1, D(2) dopamine receptor (Homo sapiens, UniProt P14416). As to the kind of experiment: Displacement of [3H]spiperone from human D2long receptor stably expressed in CHO cell membranes by competitive binding assay. Background: Loss of bound radioactivity is the signal in a displacement assay; it reports binding, not function.
Assay [2] concerns the target T1, D(2) dopamine receptor. As to the kind of experiment: Displacement of [3H]spiperone from human D2short receptor stably expressed in CHO cell membranes by competitive binding assay.
The next assay addresses D(3) dopamine receptor (Homo sapiens, UniProt P35462). As to the kind of experiment: Displacement of [3H]spiperone from human D3 receptor stably expressed in CHO cell membranes by competitive binding assay.
The target in the next assay is T2, D(4) dopamine receptor (Homo sapiens, UniProt P21917).
T2 sequence (P21917 whole entry): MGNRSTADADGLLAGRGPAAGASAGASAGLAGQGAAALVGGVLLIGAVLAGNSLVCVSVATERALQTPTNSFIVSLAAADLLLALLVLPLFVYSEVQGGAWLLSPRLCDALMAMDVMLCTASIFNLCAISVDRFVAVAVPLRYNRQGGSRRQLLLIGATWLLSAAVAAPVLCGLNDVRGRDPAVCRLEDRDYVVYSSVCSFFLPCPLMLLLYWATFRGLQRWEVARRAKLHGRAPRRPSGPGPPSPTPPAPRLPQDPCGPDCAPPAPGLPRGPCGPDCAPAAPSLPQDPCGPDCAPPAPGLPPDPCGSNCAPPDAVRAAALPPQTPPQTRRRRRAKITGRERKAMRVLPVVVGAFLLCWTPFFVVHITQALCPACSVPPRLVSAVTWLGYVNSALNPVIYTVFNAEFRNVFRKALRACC
As to the kind of experiment: Displacement of [3H]spiperone from human D4.4 receptor stably expressed in CHO cell membranes by competitive binding assay.

A further assay addresses D(1A) dopamine receptor (Sus scrofa, UniProt P50130). Briefly: Displacement of [3H]SCH23390 from porcine striatal membranes D1 receptor by competitive binding assay.
Assay [3] concerns CHO. Briefly: Selectivity ratio of Ki for human D4.4 receptor stably expressed in CHO cell membranes to Ki for human D3 receptor stably expressed in CHO cell membranes. The assay is classed as cell-based.
The subject of assay [4] is CHO. Briefly: Selectivity ratio of Ki for human D3 receptor stably expressed in CHO cell membranes to Ki for human D4.4 receptor stably expressed in CHO cell membranes. The assay is classed as cell-based.

Chain of D(3) dopamine receptor (P35462 whole entry): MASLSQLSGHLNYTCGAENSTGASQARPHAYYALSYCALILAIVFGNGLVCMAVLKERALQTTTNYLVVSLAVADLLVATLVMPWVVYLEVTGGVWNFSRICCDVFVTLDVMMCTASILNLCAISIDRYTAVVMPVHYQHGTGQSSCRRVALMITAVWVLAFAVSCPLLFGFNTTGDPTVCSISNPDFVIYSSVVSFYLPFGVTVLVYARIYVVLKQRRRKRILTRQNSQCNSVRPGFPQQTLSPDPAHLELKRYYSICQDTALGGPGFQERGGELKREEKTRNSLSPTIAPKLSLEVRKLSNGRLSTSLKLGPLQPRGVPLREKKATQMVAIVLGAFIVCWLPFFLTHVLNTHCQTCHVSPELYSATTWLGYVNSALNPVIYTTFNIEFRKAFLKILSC
Chain of D(1A) dopamine receptor (P50130 whole entry): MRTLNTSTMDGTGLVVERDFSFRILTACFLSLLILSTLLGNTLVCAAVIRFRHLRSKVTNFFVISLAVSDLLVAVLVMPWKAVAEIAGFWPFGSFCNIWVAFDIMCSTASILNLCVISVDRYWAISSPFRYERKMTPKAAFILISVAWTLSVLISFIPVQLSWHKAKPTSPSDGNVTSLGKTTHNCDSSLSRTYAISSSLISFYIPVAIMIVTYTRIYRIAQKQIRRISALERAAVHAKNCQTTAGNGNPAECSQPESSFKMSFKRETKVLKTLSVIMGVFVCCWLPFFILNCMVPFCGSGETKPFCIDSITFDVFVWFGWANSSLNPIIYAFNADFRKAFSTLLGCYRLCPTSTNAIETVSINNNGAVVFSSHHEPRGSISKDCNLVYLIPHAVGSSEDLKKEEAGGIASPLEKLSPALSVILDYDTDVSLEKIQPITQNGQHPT
T1 sequence (P14416 whole entry): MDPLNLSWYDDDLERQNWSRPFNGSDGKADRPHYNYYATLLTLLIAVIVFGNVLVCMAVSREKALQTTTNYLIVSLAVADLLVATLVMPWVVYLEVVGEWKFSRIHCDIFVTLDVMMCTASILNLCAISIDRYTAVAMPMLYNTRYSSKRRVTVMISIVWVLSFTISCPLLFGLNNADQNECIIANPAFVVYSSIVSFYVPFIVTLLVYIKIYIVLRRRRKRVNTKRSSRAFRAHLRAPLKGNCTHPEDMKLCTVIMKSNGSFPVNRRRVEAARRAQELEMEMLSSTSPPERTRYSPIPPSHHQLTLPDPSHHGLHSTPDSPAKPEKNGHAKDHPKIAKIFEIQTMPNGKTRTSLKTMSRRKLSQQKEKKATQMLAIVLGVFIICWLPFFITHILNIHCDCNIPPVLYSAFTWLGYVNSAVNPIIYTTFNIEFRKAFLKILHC

One may read the Ki as the equilibrium dissociation constant of an inhibitor or competing ligand from its target. Low readings indicate tighter binding, high ones weaker binding. Consider `O=C(CCCCCCCCCCCCCCCCCCC(=O)OC1(c2ccc(Cl)cc2)CCN(CCCC(=O)c2ccc(F)cc2)CC1)OC1(c2ccc(Cl)cc2)CCN(CCCC(=O)c2ccc(F)cc2)CC1`, for which the Ki was found to be 0.025 µM on D(2) dopamine receptor [1]; 0.027 µM on D(2) dopamine receptor [2]; 0.082 µM on D(3) dopamine receptor; 0.16 µM at D(4) dopamine receptor; 1.4 µM at D(1A) dopamine receptor.
With `O=C(CCCCCC(=O)OC1(c2ccc(Cl)cc2)CCN(CCCC(=O)c2ccc(F)cc2)CC1)OC1(c2ccc(Cl)cc2)CCN(CCCC(=O)c2ccc(F)cc2)CC1`, the Ki stood at 0.0033 µM on D(2) dopamine receptor [1]; 0.0026 µM at D(2) dopamine receptor [2]; 0.011 µM at D(3) dopamine receptor; 0.36 µM at D(4) dopamine receptor; 0.28 µM at D(1A) dopamine receptor.
Regarding `O=C(CCCCC(=O)OC1(c2ccc(Cl)cc2)CCN(CCCC(=O)c2ccc(F)cc2)CC1)OC1(c2ccc(Cl)cc2)CCN(CCCC(=O)c2ccc(F)cc2)CC1`, the Ki turned out to be 0.003 µM on D(2) dopamine receptor [1]; 0.0023 µM at D(2) dopamine receptor [2]; 0.011 µM at D(3) dopamine receptor; 0.041 µM at D(4) dopamine receptor; 0.22 µM at D(1A) dopamine receptor. For the same compound, in the assay with CHO [3], the Ratio Ki turned out to be 2.
As to `O=C(CCc1cn(CCCCCCCCn2cc(CCC(=O)OC3(c4ccc(Cl)cc4)CCN(CCCC(=O)c4ccc(F)cc4)CC3)nn2)nn1)OC1(c2ccc(Cl)cc2)CCN(CCCC(=O)c2ccc(F)cc2)CC1`, the Ki was found to be 0.0013 µM on D(2) dopamine receptor [1]; 0.0016 µM at D(2) dopamine receptor [2]; 0.0018 µM on D(3) dopamine receptor; 0.019 µM on D(4) dopamine receptor; 0.049 µM at D(1A) dopamine receptor.
The corresponding values for `O=C(CCc1cn(CCCCCCCCCCn2cc(CCC(=O)OC3(c4ccc(Cl)cc4)CCN(CCCC(=O)c4ccc(F)cc4)CC3)nn2)nn1)OC1(c2ccc(Cl)cc2)CCN(CCCC(=O)c2ccc(F)cc2)CC1` are 0.0049 µM, 0.0054 µM, 0.0059 µM, 0.089 µM and 0.086 µM.
With `O=C(CCCCCCCCCCC(=O)OC1(c2ccc(Cl)cc2)CCN(CCCC(=O)c2ccc(F)cc2)CC1)OC1(c2ccc(Cl)cc2)CCN(CCCC(=O)c2ccc(F)cc2)CC1`, the Ki at D(2) dopamine receptor [1] stood at 0.066 µM; on D(2) dopamine receptor [2], 0.046 µM; at D(3) dopamine receptor, 0.21 µM; at D(4) dopamine receptor it was 2.2 µM; at D(1A) dopamine receptor it was 1.1 µM.
For `O=C(CCCCCCCC(=O)OC1(c2ccc(Cl)cc2)CCN(CCCC(=O)c2ccc(F)cc2)CC1)OC1(c2ccc(Cl)cc2)CCN(CCCC(=O)c2ccc(F)cc2)CC1`, the Ki at D(2) dopamine receptor [1] is 0.0056 µM; on D(2) dopamine receptor [2], 0.0065 µM; on D(3) dopamine receptor it was 0.0091 µM; at D(4) dopamine receptor it was 0.52 µM; at D(1A) dopamine receptor it was 1.2 µM.
Turning to `CC(=O)OC1(c2ccc(Cl)cc2)CCN(CCCC(=O)c2ccc(F)cc2)CC1`, the Ki stood at 0.0045 µM at D(2) dopamine receptor [1]; 0.0045 µM on D(2) dopamine receptor [2]; 0.056 µM at D(3) dopamine receptor; 0.0093 µM at D(4) dopamine receptor; 0.059 µM on D(1A) dopamine receptor. Also, the Ratio Ki in the assay with CHO [4] was found to be 8.
`O=C(CCCCCCC(=O)OC1(c2ccc(Cl)cc2)CCN(CCCC(=O)c2ccc(F)cc2)CC1)OC1(c2ccc(Cl)cc2)CCN(CCCC(=O)c2ccc(F)cc2)CC1`: the inhibition constant (Ki) at D(2) dopamine receptor [1] was found to be 0.0025 µM; at D(2) dopamine receptor [2] it was 0.0029 µM; on D(3) dopamine receptor, 0.0064 µM; at D(4) dopamine receptor, 0.3 µM; at D(1A) dopamine receptor it was 0.92 µM.
The like results for `O=C(CCc1cn(CCOCCOCCOCCn2cc(CCC(=O)OC3(c4ccc(Cl)cc4)CCN(CCCC(=O)c4ccc(F)cc4)CC3)nn2)nn1)OC1(c2ccc(Cl)cc2)CCN(CCCC(=O)c2ccc(F)cc2)CC1` were, in that order, 0.001 µM, 0.003 µM, 0.0098 µM, 0.041 µM and 0.12 µM.
On to `O=C(CCCCCCCCC(=O)OC1(c2ccc(Cl)cc2)CCN(CCCC(=O)c2ccc(F)cc2)CC1)OC1(c2ccc(Cl)cc2)CCN(CCCC(=O)c2ccc(F)cc2)CC1`, for which the Ki at D(2) dopamine receptor [1] amounted to 0.015 µM; on D(2) dopamine receptor [2] it was 0.031 µM; on D(3) dopamine receptor it was 0.039 µM; at D(4) dopamine receptor it was 0.49 µM; on D(1A) dopamine receptor, 1.4 µM.
The corresponding values for `CN(C)CCC(=O)OC1(c2ccc(Cl)cc2)CCN(CCCC(=O)c2ccc(F)cc2)CC1` are 0.0019 µM, 0.0018 µM, 0.03 µM, 0.0087 µM and 0.2 µM.
In the case of `CCC(=O)OC1(c2ccc(Cl)cc2)CCN(CCCC(=O)c2ccc(F)cc2)CC1`, the Ki on D(2) dopamine receptor [1] is 0.0039 µM; on D(2) dopamine receptor [2] it was 0.0016 µM; at D(3) dopamine receptor, 0.041 µM; on D(4) dopamine receptor, 0.0025 µM; on D(1A) dopamine receptor it was 0.072 µM. Moreover, the Ratio Ki in the assay on CHO [4] turned out to be 8.
Turning to `O=C(CCN1CCN(CCC(=O)OC2(c3ccc(Cl)cc3)CCN(CCCC(=O)c3ccc(F)cc3)CC2)CC1)OC1(c2ccc(Cl)cc2)CCN(CCCC(=O)c2ccc(F)cc2)CC1`, the Ki came to 0.0025 µM at D(2) dopamine receptor [1]; 0.0011 µM at D(2) dopamine receptor [2]; 0.0095 µM on D(3) dopamine receptor; 0.033 µM at D(4) dopamine receptor; 0.36 µM on D(1A) dopamine receptor.
Regarding `Cc1ccc(C(=O)OC2(c3ccc(Cl)cc3)CCN(CCCC(=O)c3ccc(F)cc3)CC2)cc1`, the Ki on D(2) dopamine receptor [1] was 0.056 µM; on D(2) dopamine receptor [2], 0.047 µM; on D(3) dopamine receptor, 0.27 µM; at D(4) dopamine receptor, 0.13 µM; on D(1A) dopamine receptor, 0.55 µM.
The corresponding values for `O=C(CCc1cn(CCOCCOCCOCCOCCn2cc(CCC(=O)OC3(c4ccc(Cl)cc4)CCN(CCCC(=O)c4ccc(F)cc4)CC3)nn2)nn1)OC1(c2ccc(Cl)cc2)CCN(CCCC(=O)c2ccc(F)cc2)CC1` are 0.0016 µM, 0.0038 µM, 0.019 µM, 0.046 µM and 0.15 µM.
`O=C(CCCCCCCCCCCCC(=O)OC1(c2ccc(Cl)cc2)CCN(CCCC(=O)c2ccc(F)cc2)CC1)OC1(c2ccc(Cl)cc2)CCN(CCCC(=O)c2ccc(F)cc2)CC1`: the Ki at D(2) dopamine receptor [1] came out at 0.12 µM; at D(2) dopamine receptor [2], 0.062 µM; on D(3) dopamine receptor, 0.16 µM; on D(4) dopamine receptor it was 0.49 µM; on D(1A) dopamine receptor, 1.4 µM.
As to `O=C(CCCC(=O)OC1(c2ccc(Cl)cc2)CCN(CCCC(=O)c2ccc(F)cc2)CC1)OC1(c2ccc(Cl)cc2)CCN(CCCC(=O)c2ccc(F)cc2)CC1`, the Ki is 0.012 µM on D(2) dopamine receptor [1]; 0.012 µM at D(2) dopamine receptor [2]; 0.031 µM on D(3) dopamine receptor; 0.033 µM on D(4) dopamine receptor; 0.22 µM on D(1A) dopamine receptor.
For the compound `O=C(CCC(=O)N1CCC(O)(c2ccc(Cl)cc2)CC1)c1ccc(F)cc1`, the Ki turned out to be 0.86 µM at D(2) dopamine receptor [1]; 0.47 µM at D(2) dopamine receptor [2]; 1.7 µM at D(3) dopamine receptor; 18 µM at D(4) dopamine receptor; 19 µM at D(1A) dopamine receptor.
With `O=C(CCC(=O)OC1(c2ccc(Cl)cc2)CCN(CCCC(=O)c2ccc(F)cc2)CC1)OC1(c2ccc(Cl)cc2)CCN(CCCC(=O)c2ccc(F)cc2)CC1`, the Ki came out at 0.0067 µM at D(2) dopamine receptor [1]; 0.0054 µM on D(2) dopamine receptor [2]; 0.014 µM on D(3) dopamine receptor; 0.024 µM on D(4) dopamine receptor; 0.13 µM at D(1A) dopamine receptor. In addition, in the assay with CHO [3], the Ratio Ki came out at 2.
`CN(CCC(=O)OC1(c2ccc(Cl)cc2)CCN(CCCC(=O)c2ccc(F)cc2)CC1)CCN(C)CCC(=O)OC1(c2ccc(Cl)cc2)CCN(CCCC(=O)c2ccc(F)cc2)CC1`: the Ki on D(2) dopamine receptor [1] was 0.0032 µM; at D(2) dopamine receptor [2] it was 0.0022 µM; on D(3) dopamine receptor, 0.047 µM; on D(4) dopamine receptor, 0.029 µM; on D(1A) dopamine receptor it was 0.26 µM.
The corresponding values for `CCCCCCCCCC(=O)OC1(c2ccc(Cl)cc2)CCN(CCCC(=O)c2ccc(F)cc2)CC1` [HALOPERIDOL DECANOATE] are 0.0018 µM, 0.00046 µM, 0.0035 µM, 0.0058 µM and 0.14 µM.
`O=C(CCCCCCCCCCCCCCC(=O)OC1(c2ccc(Cl)cc2)CCN(CCCC(=O)c2ccc(F)cc2)CC1)OC1(c2ccc(Cl)cc2)CCN(CCCC(=O)c2ccc(F)cc2)CC1`: the Ki worked out at 0.14 µM at D(2) dopamine receptor [1]; 0.28 µM on D(2) dopamine receptor [2]; 0.22 µM on D(3) dopamine receptor; 1.4 µM on D(4) dopamine receptor; 6.8 µM on D(1A) dopamine receptor.
Consider `O=C(CCCCCCCCCCCCCCCCCCCCC(=O)OC1(c2ccc(Cl)cc2)CCN(CCCC(=O)c2ccc(F)cc2)CC1)OC1(c2ccc(Cl)cc2)CCN(CCCC(=O)c2ccc(F)cc2)CC1`, for which the Ki on D(2) dopamine receptor [1] was 0.31 µM; at D(2) dopamine receptor [2], 0.28 µM; on D(3) dopamine receptor, 0.5 µM; on D(4) dopamine receptor, 0.85 µM; on D(1A) dopamine receptor, 1.5 µM.
The like results for `O=C(CCCCCCCCCCCCCCCCC(=O)OC1(c2ccc(Cl)cc2)CCN(CCCC(=O)c2ccc(F)cc2)CC1)OC1(c2ccc(Cl)cc2)CCN(CCCC(=O)c2ccc(F)cc2)CC1` were, in that order, 0.16 µM, 0.15 µM, 0.38 µM, 0.57 µM and 0.93 µM.

Source of the values: ChEMBL document CHEMBL3352709, “Synthesis and binding profile of haloperidol-based bivalent ligands targeting dopamine D(2)-like receptors” (Bioorg Med Chem Lett, 2014).
